Test results reported in paper PMC8309014, “Lactose-Gated Mesoporous Silica Particles for Intestinal Controlled Delivery of Essential Oil Components: An In Vitro and In Vivo Study” (Pharmaceutics, 2021).

What was measured:
[1] = in vivo; settings: male, Wistar, rat, po
Protocol: The EOC concentration in the aliquots of each specific section ((i) cargo release experiments, Section 2.6; (ii) EOCs permeability across the intestinal barriers, Section 2.13; and (iii) in vivo pharmacokinetic assays, Section 2.17) was analyzed by HPLC. For Thy and Eug molecules, the mobile phase used was ACN:H2O 50:50 v/v with 0.05% of TFA and absorbance detector using λex = 280 nm. For Cin, the mobile phase was ACN:H2O 85:15 v/v with 0.05% of TFA and λex = 254 nm. […] of volume injection were used and a flow of 1 mL/min was fixed. The methods were previously validated with adequate linearity, precision and accuracy (R > 0.99 and coefficient of variation < 5%).
In vivo experiments with M41-Cin-L in a Wistar rat model were carried out in order to study the concentration of cinnamaldehyde, free and encapsulated, in plasma and in the different gastrointestinal sections. The animal study was approved by the Scientific Committee of the Faculty of Pharmacy Universidad Miguel Hernández, Elche (project reference DI-MBS-02-15) and followed the guidelines described in the EC Directive 86/609, the Council of the Europe Convention ETS 123 and Spanish national laws governing the use of animals in research (Real Decreto 223/1988, BOE 67, 18-3-98:8509-8511). […] The concentration of Cin in each sample was determined by HPLC following the methodology described in Section 2.7.

[2] = tested on: MCP-1; experiment: Inflammatory response measurement: MCP-1 release in apical media; type: cell-based, Human; settings: 24 h, EOC 200 μM free or in M41-EOC-L; LPS 10 μg/mL positive control
Protocol: The Caco-2 cell epithelia were incubated in cell culture medium with each treatment, free EOCs (200 μM) and […] solids (concentration of particles corresponding to a 200 μM EOC-payload), during the time required to perform the assay: 90 min for EOCs permeability (see Section 2.13) and 24 h for the other interaction studies (Lucifer yellow, Section 2.14, and inflammatory response measurement, Section 2.15). In addition, some cell inserts were incubated with free medium at the same conditions as negative controls. TEER measurements were performed before and after each treatment to ascertain the validity of the membranes before the assay and to know the treatment's effect on them. Inflammatory cytokine and chemokine release (IL-8, MCP-1) was measured in the apical media from the enterocyte layers after 24 h of treatment with the corresponding […]-EOC-L and free EOCs. For the measurement, a Bio-Plex 1 MAGPIX TM Multiplex Reader (Bio-Rad) was employed according to the manufacturer-described-procedure. The cells were stimulated with 10 μg/mL LPS as positive control.

## O=C/C=C/c1ccccc1 [Cin, cinnamaldehyde]
[1]
  Tmax: 0.75 h
  half-life: 1.36 h

## C=CCc1ccc(O)c(OC)c1 [Eug, eugenol]
[2]
  MCP-1 levels in the apical compartment: increases its levels
